Data on 3 molecules can be found in publication PMC3118832 (Clinical Therapeutics, 2011).

Like-named read-outs stand apart in the source and are kept apart here. Where only a bound is given, the exact number is not on record here.

The conditions of series [1]: cited from earlier work; for enzymatic autoinduction: administered continuously over several days; for CL/F / Vd/F / t1/2: healthy Vietnamese male volunteers, single oral administration, mean.
Series [2] can be described thus: Tolerability: adverse-event reports and laboratory assessment at follow-up. It counts as in vivo, human. Here is the method:
Fifteen healthy Vietnamese male volunteers aged 18 to 55 years were enrolled in the study. No female subjects were enrolled to avoid potential risks of adverse effects on the fetus during early pregnancy. The study design and potential adverse drug effects were explained to all volunteers in their own language before initiation of any study-related procedures. Volunteers who provided written informed consent were considered for enrollment. Clinical and laboratory screenings were performed at the Hospital for Tropical Diseases in Ho Chi Minh City (HTD-HCMC), Vietnam, and the results evaluated before enrollment. Clinical evaluation and laboratory assessment (full hematology and biochemistry) were also performed at follow-up 1 week after the last study visit.

The nature of the next series: clinical. Conditions: human, in vivo. Here is the method:
The study was conducted at HTD-HCMC. The clinical trial protocol was reviewed and supported by the internal Scientific and Ethical Committee of the HTD-HCMC and Oxford Tropical Research Ethics Committee (OxTREC 019-06), University of Oxford, Oxford, United Kingdom. The volunteers were randomly assigned to 1 of the 24 possible sequences for the 4 treatment groups (Table I). […] A fixed tablet combination of piperaquine and the reference Vietnamese formulation is not commercially available and could not be included in this trial.
Study drug was administered with 200 mL of drinking water after an overnight fast of >10 hours, according to US Food and Drug Administration (FDA) guidelines for bioequivalence studies.[30] The volunteers were asked to continue fasting for 2 hours after drug administration. Beverages containing caffeine or alcohol were not allowed on days of drug administration and blood sampling. […] Tolerability was assessed daily by the clinician during each study occasion (using an adverse-event report form) and at the follow-up visit 1 week after last study occasion (using an adverse-event report form and laboratory assessment). Adverse events were accessed by using an open question about potential health problems during the study and followed up with a questionnaire if any health problems had occurred since the last consultation.
An intravenous indwelling cannula was introduced and maintained in the antecubital vein and kept for 12 hours during blood sample collection at each study visit. A blood volume of 0.5 mL was discarded before sample collection to avoid drug dilution effects. A5-mL blood sample was drawn into lithium heparin tubes (Hong Thien My Medical Equipment Joint Stock Co., Ho Chi Minh City, Vietnam) before drug administration (predose) and at the following times after drug administration (postdose): 0.25, 0.5, 1, 1.5, 2, 2.5, 3, 4, 5, 6, 7, 8, 10, and 12 hours. The same time schedule was followed for all study visits. Saline solution (0.9% sodium chloride, 2 mL) was used to flush the lines after blood collection. Blood samples were immediately centrifuged at 3000g for 10 minutes at 20°C. Plasma were transferred to cryotubes within 10 minutes after centrifugation and stored directly at –70°C. All samples were freighted to Thailand on dry ice and analyzed by the Clinical Pharmacology Laboratory at Mahidol–Oxford Tropical Medicine Research Unit (Bangkok, Thailand).
The LC-MS/MS system consisted of an Agilent 1200 LC system including an autosampler set at 4°C and a column oven set at 40°C (Agilent Technologies Inc., Santa Clara, California) coupled with an API 5000 triple quadrupole mass spectrometer (Applied Biosystems/MDS SCIEX, Foster City, California). The lower limit of quantitation was set to 1.03 ng/mL, with a limit of detection of 0.257 ng/mL. […] Three independent quality-control samples in plasma (2.89, 40.7, and 571 ng/mL) were prepared fresh and analyzed in triplicate in each batch of extracted plasma samples. All samples were kept on ice until loaded onto the solid-phase extraction plate. The extracted samples were injected directly (5 μL) into the LC-MS/MS system.
AUC0–last values were calculated using the linear trapezoidal method for ascending concentrations and the logarithmic trapezoidal method for descending concentrations.[33] […] Cmax and Tmax concentrations were taken directly from the observed data. Vd/F and CL/F were computed individually according to standard procedures and summarized for each treatment group. […]

Setting [3] is: posttreatment (follow-up 1 week after last visit), mean (SD).

Consider `C[C@H]1[C@@H](O)O[C@@H]2O[C@@]3(C)CC[C@H]4[C@H](C)CC[C@@H]1[C@@]24OO3` [dihydroartemisinin], for which, in series [1], the enzymatic autoinduction entry is reported as “not”.
Regarding `CO[C@H]1O[C@@H]2O[C@@]3(C)CC[C@H]4[C@H](C)CC[C@@H]([C@H]1C)[C@@]24OO3` [artemether], the enzymatic autoinduction entry in series [1] is listed as “marked ability for enzymatic autoinduction”.
For `C[C@@H]1CC[C@H]2[C@@H](C)C(=O)O[C@@H]3O[C@@]4(C)CC[C@@H]1[C@]32OO4` [artemisinin], in series [1] (ref 31), the apparent clearance CL/F was 127 mL/min/kg, the Vd/F is 35.9 L/kg and the t1/2 was 2.10 h. For the same molecule, in series [1] (ref 35), the apparent clearance CL/F was 85 mL/min/kg, the Vd/F was 19.4 L/kg and the t1/2 is 2.59 h. Further, in series [1] (ref 36), the CL/F was 89.7 mL/min/kg, the Vd/F is reported as 16.4 L/kg and the t1/2 is 2.51 h. For the same molecule, in series [1] (in vivo), the bioavailability is listed as < 30%. The “tolerability / adverse events” value in series [2] (15 healthy volunteers, single oral doses) is reported as “no adverse events were reported”. For the same molecule, in series [2] (levels still in the normal range), the “volunteers with higher aspartate aminotransferase at follow-up compared with baseline” value is “Six of the 15”. In addition, the Urea in series [2] (posttreatment (follow-up 1 week after last of 4 single-dose visits), mean (SD)) was 5.36 (1.5) [2.4–7.2] mM. Also, in series [2] (setting [3]), the ALT was 44.7 (25) [15–120] U/L, the AST is 29.1 (16) [19–80] U/L, the Albumin was 39.7 (4.2) [30–46] g/L and the Basophils was 1.12 (0.49) [0.23–2.1] %. In series [2] (setting [3]), the Eosinophils is 5.34 (3.2) [1.6–13] %, the Erythrocytes is 5.23 (0.49) [4.6–6.1] 10^12/L, the Ferritin is 117 (36) [69–190] μg/L and the Globulin is 37.7 (6.5) [30–47] g/L. In series [2] (setting [3]), the Glucose was 3.91 (0.35) [3.5–4.4] mM, the Hematocrit is 47.7 (2.5) [45–53] %, the Hemoglobin was 15.6 (0.78) [15–18] g/dL and the Leukocytes is 7.62 (1.5) [5.4–10] 10^9/L. For the same molecule, in series [2] (setting [3]), the Lymphocytes is 32.5 (6.2) [21–43] %, the Magnesium was 0.896 (0.17) [0.70–1.1] mM, the Monocytes is 7.47 (1.4) [5.3–10] % and the Neutrophils is 53.7 (6.5) [45–63] %. Also, in series [2] (setting [3]), the Reticulocytes is 0.700 (0.34) [0.10–1.5] %, the Thrombocytes was 258 (59) [130–330] 10^9/L, the Total bilirubin was 16.1 (4.0) [9.0–20] μM and the Total protein was 77.3 (5.1) [67–82] g/L. Also, the “oral clearance in smokers compared with nonsmokers” value in the series “clinical” (po) is reported as “significantly higher”. Further, in the series “clinical” (male), the apparent clearance (CL/F) is 121 mL/min/kg, the Vd is 1320 L, the Vd/F turned out to be 22.8 L/kg and the half-life was 2.23 h.
